# Measurements taken from PMC10778824, “New Chalcone Derivatives Containing 2,4-Dichlorobenzenesulfonamide Moiety with Anticancer and Antioxidant Properties” (International Journal of Molecular Sciences, 2023).
# How the values were obtained:
# [1] = tested on: Salmonella enterica ATCC13076; assay: MIC determination; type: cell-based; settings: 37 °C, 48 h
# Procedure: (§1) The MIC determinations for Staphylococcus epidermidis ATCC14990, Staphylococcus aureus ATCC6538, Enterococcus faecalis ATCC51299, Klebsiella pneumoniae ATCC13883, Escherichia coli ATCC8739, Salmonella enterica ATCC13076, Helicobacter pylori ATCC43504, Campylobacter jejuni ZMF, Campylobacter coli ZMF, Bacillus cereus PCM 1948,2019 (ATCC11778), and Listeria monocytogenes PCM2191 were performed based on the methodology described by Krauze-Baranowska et al.. The procedure for H. pylori was used in the experiments with Campylobacter strains, and the procedure for B. subtilis was used in the experiments with L. monocytogenes and B. cereus. The tested samples were dissolved in DMSO and diluted with water (concentration of approximately 500 μg/mL). The solutions were diluted geometrically by transferring the mixture/dilution (100 μL) from the first to the twelfth well of the microtiter plate. The final concentrations of samples used for antimicrobial effects ranged from 500 to 0.006 µg/mL. Ampicillin was used as a reference compound in the concentration range of 128 to 0.0625 µg/mL. The tests were incubated at 37 °C for 48 h. The diluent concentration had no effect on the activity of the tested compounds. All experiments were performed in triplicate.
# [2] = tested on: Klebsiella pneumoniae ATCC13883; assay: MIC determination; type: cell-based; settings: 37 °C, 48 h
# Procedure: as §1
# Campylobacter jejuni ZMF = assay: MIC determination; type: cell-based; settings: 37 °C, 48 h
# Procedure: as §1
# [3] = tested on: Enterococcus faecalis ATCC51299; assay: MIC determination; type: cell-based; settings: 37 °C, 48 h
# Procedure: as §1
# [4] = tested on: Listeria monocytogenes PCM2191; assay: MIC determination; type: cell-based; settings: 37 °C, 48 h
# Procedure: as §1
# [5] = tested on: Staphylococcus aureus ATCC6538; assay: MIC determination; type: cell-based; settings: 37 °C, 48 h
# Procedure: as §1
# [6] = tested on: Escherichia coli ATCC8739; assay: MIC determination; type: cell-based; settings: 37 °C, 48 h
# Procedure: as §1
# Campylobacter coli ZMF = assay: MIC determination; type: cell-based; settings: 37 °C, 48 h
# Procedure: as §1
# [7] = tested on: Helicobacter pylori ATCC43504; assay: MIC determination; type: cell-based; settings: 37 °C, 48 h
# Procedure: as §1
# [8] = tested on: Bacillus cereus PCM 1948,2019 (ATCC11778); assay: MIC determination; type: cell-based; settings: 37 °C, 48 h
# Procedure: as §1
# [9] = tested on: Staphylococcus epidermidis ATCC14990; assay: MIC determination; type: cell-based; settings: 37 °C, 48 h
# Procedure: as §1
# [10] = tested on: cancer cells (HeLa, HL-60, AGS); assay: MTT assay, cancer cells taken together; type: cell-based, human; settings: HL-60 and AGS together
# Procedure: (§2) The human gastric adenocarcinoma AGS, cervical cancer HeLa, and acute promyelocytic leukemia HL-60 cells were obtained from the American Type Culture Collection (ATCC, Manassas, VA, USA). Human neonatal fibroblasts were obtained from LGC Standards (Luckenwalde, Germany). The HeLa and AGS lines were cultured in Dulbecco’s modified Eagle’s medium (DMEM) and DMEM/F12 medium, respectively. The HL-60 line was maintained in RPMI-1640 medium. Fibroblasts were cultured in Fibroblast Growth Medium with Supplement Mix. All the media were supplemented with 100 units/mL of penicillin, 100 µg/mL of streptomycin, and 10% (v/v) fetal bovine serum (FBS) (Merck Millipore, Burlington, MA, USA). The cells were incubated at 37 °C and 5% CO2.
# (§3) To estimate the cytotoxic effect of the five compounds (4–8), MTT (3-(4,5-dimethylthiazol-2-yl)-2,5-diphenyltetrazolium bromide) assay was used. Oxaliplatin was used as a positive control in this test. All the cell lines were seeded in 96-well plates at a density of 5 × 10^3 cells/well and treated for 24 h with the compounds at concentrations of 0.5–40 µg/mL. Oxaliplatin was tested in the range of 20–400 µg/mL (50–1000 µM). After treatment, the cells were incubated with MTT (0.5 mg/mL; Merck Millipore, Burlington, MA, USA) for 3 h. Then, DMSO was used to dissolve formazan crystals, and the absorbance of the formazan solution was measured with a plate reader (Epoch, BioTek Instruments, Santa Clara, CA, USA). All the results (±standard deviation (SD)) were obtained from six repetitions in at least two independent experiments. The data are expressed as IC50 values (µg/mL).
# [11] = β-Carotene bleaching test; settings: compared to ascorbic acid
# Procedure: β-Carotene bleaching test was based on the method described by Olszowy et al. with some modifications. First, 1 mg of β-carotene was dissolved in 5 mL of chloroform. Afterwards, […] of linoleic acid and 200 mg of Tween 40 were added. The chloroform was evaporated, and 50 mL of oxygenized water was added. The created emulsion was mixed with different concentrations of chalcone derivatives. β-carotene bleaching was analyzed at λ = 492 nm before (t = 0 min) and after 90 min (t = 90 min) of incubation at 50 °C (Epoch, BioTek Instruments, Santa Clara, CA, USA). Ascorbic acid was used as a standard. The control was composed of emulsion and DMSO.
# The results were calculated according to the following Formula (4):[(AsampleT0 − AsampleT90)/(AcontrolT0 − AcontrolT90) × 100%(4)
# cervical cancer HeLa = assay: MTT assay, HeLa cells; type: cell-based, human; settings: for IC50: Homo sapiens, HeLa; for selectivity index HeLa: SI = IC50 noncancer cells/IC50 cancer cells, in relation to human neonatal fibroblasts
# Procedure: as §2, §3
# [12] = DPPH radical scavenging assay; settings: concentration of 800 µg/mL
# Procedure: The DPPH radical scavenging assay of samples (ligands or complexes) was performed with ascorbic acid as a standard. Different concentrations of chalcone derivatives, dissolved in DMSO, were mixed with the same amount of 0.06 mM DPPH methanolic solution and incubated at room temperature in the dark for 30 min. The absorbance was analyzed at λ = 517 nm using a 96-well microplate reader (Epoch, BioTek System, Winooski, VT, USA). The control was composed of DPPH and DMSO. DPPH inhibition was calculated according to the following Formula (2):DPPH Inhibition (%) = [(Acontrol − Asample)/Acontrol] × 100%(2)
# [13] = tested on: gastric adenocarcinoma AGS; assay: MTT assay, AGS cells; type: cell-based, human; settings: for IC50: Homo sapiens, AGS, 24 h; for selectivity index AGS: SI = IC50 noncancer cells/IC50 cancer cells, in relation to human neonatal fibroblasts
# Procedure: as §2, §3
# [14] = tested on: acute promyelocytic leukemia HL-60; assay: MTT assay, HL-60 cells; type: cell-based, human; settings: for IC50: Homo sapiens, HL-60, 24 h; for selectivity index HL-60: SI = IC50 noncancer cells/IC50 cancer cells, in relation to human neonatal fibroblasts
# Procedure: as §2, §3
# [15] = tested on: human neonatal fibroblasts; assay: MTT assay, noncancerous fibroblasts; type: cell-based; settings: 24 h treatment; for IC50: Homo sapiens, Fibroblast
# Procedure: as §2, §3
# neutrophil elastase = target: T1, neutrophil elastase (Sus scrofa, UniProt P00772); assay: Elastase assay (SANA substrate); type: biochemical, porcine; settings: Tris-HCl pH 8.0, SANA substrate; read-out: neutrophil elastase inhibition IC50 (converted)
# T1 construct: purchased Sigma Chemical Co. (St. Louis, MO, USA)
# Procedure: The elastase analysis was performed according to the spectrophotometric method with oleanolic acid as a reference. The reaction mixture (Tris-HCl buffer (pH 8.0), 1.0 μg/mL porcine pancreatic elastase, and different concentrations of chalcone derivatives was preincubated at room temperature for 15 min. Afterwards, the addition of the substrate—SANA—started the reaction. Product formation changes were analyzed at λ = 410 nm for 20 min every 20 s (Epoch, BioTek Instruments, Santa Clara, CA, USA). The control was composed of Tris-HCl buffer (pH 8.0), an appropriate concentration of the chalcone derivative, and SANA.
# caspase-9 = assay: Caspase-Glo 9 activity assay in AGS cells; type: cell-based, human; settings: 20 µg/mL
# Procedure: (§4) The AGS cells were seeded in a 96-well plate (5 × 10^3 cells/well) and treated with compound 5 at concentrations of 1, 5, 7, and 10 µg/mL for 24 h; oxaliplatin at the concentration of 20 µg/mL; and DMSO (1%, v/v). The cells were then treated with reagents from Caspase-Glo 8 Assay or Caspase-Glo 9 Assay (Promega, Madison, WI, USA) and measured with the luminometer Glomax Multi + Detection System (Promega, Madison, WI, USA). The experiments were performed in two independent repeats in three repetitions.
# caspase-8 = assay: Caspase-Glo 8 activity assay in AGS cells; type: cell-based, human; settings: 20 µg/mL
# Procedure: as §4
# AGS cells [16] = assay: MitoPotential assay (mitochondrial membrane depolarization); type: cell-based, human; settings: 40 µg/mL, 5 h
# Procedure: The AGS cells were seeded in a 12-well plate (1 × 10^5 cells/well) and incubated with compound 5 at concentrations of 1, 5, and 10 µg/mL; oxaliplatin at the concentration of 40 µg/mL; and DMSO (0.2%, v/v). After 5 h of exposure, the cells were stained with the Muse MitoPotential Assay Kit (Merck Millipore, Burlington, MA, USA) and analyzed with the Muse Cell Analyzer (Merck Millipore, Burlington, MA, USA). The percentage of depolarized live and dead cells was estimated in the experiments, which were independently repeated three times.
# AGS cells [17] = assay: Cell cycle analysis (propidium iodide); type: cell-based, human; settings: 40 µg/mL
# Procedure: The AGS cells were seeded in a 6-well plate (5 × 10^5 cells/well) and incubated with compound 5 at concentrations of 1, 5, and 10 µg/mL for 48 h; oxaliplatin at the concentration of 40 µg/mL; and DMSO (0.2%, v/v). After treatment, the cells were stained with propidium iodide from the Muse Cell Cycle Assay Kit (Merck Millipore, Burlington, MA, USA), and the amount of cells in each phase of the cell cycle was determined using the Muse Cell Analyzer (Merck Millipore, Burlington, MA, USA). The experiment was independently repeated three times.
# T1 sequence (P00772 27-266): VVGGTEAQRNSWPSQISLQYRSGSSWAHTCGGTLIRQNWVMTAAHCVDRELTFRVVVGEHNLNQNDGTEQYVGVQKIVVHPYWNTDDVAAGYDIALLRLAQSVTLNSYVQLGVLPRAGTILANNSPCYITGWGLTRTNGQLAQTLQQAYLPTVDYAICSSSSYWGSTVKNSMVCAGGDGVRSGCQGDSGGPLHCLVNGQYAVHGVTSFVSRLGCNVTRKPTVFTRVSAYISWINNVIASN
SMILES,MIC [1] [µg/mL],MIC [2] [µg/mL],MIC (Campylobacter jejuni ZMF) [µg/mL],MIC [3] [µg/mL],MIC [4] [µg/mL],MIC [5] [µg/mL],MIC [6] [µg/mL],MIC (Campylobacter coli ZMF) [µg/mL],MIC [7] [µg/mL],MIC [8] [µg/mL],MIC [9] [µg/mL],"IC50 (cervical cancer HeLa; MTT, 24 h treatment) [µg/mL]","IC50 ([13]; MTT, 24 h treatment) [µg/mL]","IC50 ([14]; MTT, 24 h treatment) [µg/mL]",IC50 (neutrophil elastase) [µM],selectivity index HeLa (cervical cancer HeLa),% of DPPH radical inhibition [12] [%],selectivity index AGS [13],selectivity index HL-60 [14],IC50 [15] [µg/mL],other results
"Cc1cc(S(=O)(=O)Nc2ccc(C(=O)/C=C/c3ccccc3)cc2)c(Cl)cc1Cl [Compound 4, (E)-2,4-Dichloro-N-(4-Cinnamoylphenyl)-5-Methylbenzenesulfonamide]",> 500,> 500,> 500,> 500,> 500,> 500,> 500,> 500,> 500,> 500,> 500,9.63 ± 0.06,1.23 ± 0.23,2.37 ± 0.23,119,3.34,19.49 ± 0.38,26.14,13.57,32.1 ± 2.91,IC50 toward cancer cells [10]: weaker activity; protection of lipids oxidation / reduction of lipid peroxidation (in words) [11]: weaker properties
"Cc1cc(S(=O)(=O)Nc2ccc(C(=O)/C=C/c3ccc(F)cc3)cc2)c(Cl)cc1Cl [Compound 6, (E)-2,4-Dichloro-N-{4-[3-(4-Fluorophenyl)acryloyl]phenyl}-5-Methylbenzenesulfonamide]",> 500,> 500,> 500,> 500,> 500,> 500,> 500,> 500,> 500,> 500,> 500,8.65 ± 0.52,4.49 ± 0.44,1.69 ± 0.2,181,3.12,21.85 ± 0.22,6.01,15.98,27 ± 2.29,IC50 toward cancer cells [10]: weaker activity
"O=C1[O][Pt]2([NH][C@@H]3CCCC[C@H]3[NH]2)[O]C1=O [Oxaliplatin, reference compound]",,,,,,,,,,,,,,,,,,,,,"caspase-9 activity (in words) (caspase-9): notable increase; IC50 HeLa (cervical cancer HeLa; MTT, 24 h treatment): 35.76 ± 1.72 µg/mL; IC50 AGS ([13]; MTT, 24 h treatment): 17.90 ± 1.20 µg/mL; caspase-8 activity (in words) (caspase-8): notable increase; IC50 Fibroblasts [15]: 95.79 ± 3.24 µg/mL; changes in percentages of live, depolarized, and dead cells versus control (AGS cells [16]): no observable changes; amount of cells in subG0 phase (in words) (AGS cells [17]): significant increase; cells in G0/G1 phase (AGS cells [17]): 35.6%; cells in G2/M phase (AGS cells [17]): 32.4%; cells in S phase (AGS cells [17]): 14.2%"

# Further lines, with some results ahead:
MIC [1] [µg/mL],MIC [2] [µg/mL],MIC (Campylobacter jejuni ZMF) [µg/mL],MIC [3] [µg/mL],MIC [4] [µg/mL],MIC [5] [µg/mL],MIC [6] [µg/mL],MIC (Campylobacter coli ZMF) [µg/mL],MIC [7] [µg/mL],MIC [8] [µg/mL],MIC [9] [µg/mL],"IC50 (cervical cancer HeLa; MTT, 24 h treatment) [µg/mL]","IC50 ([13]; MTT, 24 h treatment) [µg/mL]","IC50 ([14]; MTT, 24 h treatment) [µg/mL]",IC50 (neutrophil elastase) [µM],SMILES,selectivity index HeLa (cervical cancer HeLa),% of DPPH radical inhibition [12] [%],selectivity index AGS [13],selectivity index HL-60 [14],IC50 [15] [µg/mL],other results
> 500,> 500,> 500,> 500,> 500,> 500,> 500,> 500,> 500,> 500,> 500,6.34 ± 0.04,< 1,< 1.57,53.3,"Cc1cc(S(=O)(=O)Nc2ccc(C(=O)/C=C/c3ccc(Cl)cc3)cc2)c(Cl)cc1Cl [Compound 7, (E)-2,4-Dichloro-N-{4-[3-(4-Chlorophenyl)acryloyl]phenyl}-5-Methylbenzenesulfonamide]",4.72,18.70 ± 0.04,19.08,20.51,29.9 ± 3.27,"IC50 HL-60 ([14]; MTT, 24 h treatment): 1.46 ± 0.20 µg/mL"
0.5,62.5,32,0.16,16,0.08,3.9,16,3.2,125,0.312,,,,,"CC1(C)S[C@@H]2[C@H](NC(=O)[C@H](N)c3ccccc3)C(=O)N2[C@H]1C(=O)O [ampicillin, reference compound]",,,,,,
